Results as given in patent US7498408B2, “Ryanodine receptor polypeptides” (E. I. du Pont de Nemours and Company, priority 2002, dated 2009).

Experiments:
[1] = biological target: T1, recombinant Drosophila melanogaster ryanodine receptor (expressed in Sf9 cells) (Drosophila melanogaster, UniProt Q24498); format: cell-based
T1 construct: His tag + attB1 + Lox footprint (N-terminal vector extension; present only if the Cre-Lox vector was the one used) (N); expressed in transfected cells
Excerpt: (§1) Several drops of a suspension of recombinant Spodoptera frugiperda cell line, Sf9, transiently expressing insect ryanodine receptors were placed on a poly-L-lysine-coated coverslip and allowed to attach. Cells were then rinsed in physiological saline having the following composition (mM): NaCl 130; KCl 5.4; MgCl2 1.2; CaCl2 1.0; NaHCO3 4.2; NaH2P04 7.3; Glucose 10; Sucrose 63; MES 20; pH 6.3. Cells were then bathed in physiological saline containing the calcium sensitive fluoroprobe, Fura-2 AM (2 μM), and Pluronic F127 (0.002%) for 30 min. Cells were rinsed in standard physiololgical saline for at least 15 min prior to testing. Testing was conducted in standard physiological saline, as the cell lines are devoid of functional voltage-gated calcium channels.
Cell-attached coverslips were placed in a sealed chamber with physiological saline continuously perfused across the cells using a peristaltic pump. Test compounds solubilized in physiological saline were applied by switching the perfusate source.
(§2) For studies involving the stable recombinant Spodoptera frugiperda cell line, Sf9, (other cell lines could also be used such as Sf21, S2, etc) expressing an insect ryanodine receptor from Drosophila melanogaster, or Heliothis virescens (alternatively receptors from other species such as Myzus persicae, Peregrinus maidis, Aphis gossypii, etc) were grown in T75 (or other appropriate sized) flasks in supplemented Grace's insect medium. Cells were maintained in an incubator at 22° C. until testing. Cells were suspension-loaded with the calcium sensitive fluoroprobe, Fura-2 AM (1-2 μM) and Pluronic F127 (0.002%) in culture medium for 30 minutes under agitation. Cells were then centrifuged and the pellet resuspended in physiological saline having the following composition (mM): NaCl 130; KCl 5.4; MgCl2 1.2; CaCl2 1.0; NaHCO3 4.2; NaH2P04 7.3; Glucose 10; Sucrose 63; MES 20; pH 6.3 at approximately 150,000-200,000 cells per well (96-well plate). After a 30 minute equilibration period the cell plate was tested using a Molecular Devices' FlexStation™ system with dual wavelength excitation (340 and 380 nm) and fluorescence emission measured at 510 nm. Test and control samples were added using integrated fluidics and the intracellular calcium monitored over a 2 minute period.

[2] = test system: native cockroach ryanodine receptors (in embryonic neuronal cells); experiment: Calcium release assay, calcium imaging in primary embryonic cockroach neuronal cells; format: cell-based, Periplaneta americana
Excerpt: Embryonic neuronal cultures of the American cockroach Periplaneta americana were established, with minor modifications, following the method of Beadle and Lees (1988) (in Cell Culture Approaches to Invertebrate Neuroscience, Academic Press, New York, pp 123-127). Briefly, 26-27-day old oothecae were collected, surface-sterilized and cut open along a line one-third of the distance below the dorsal midline. The heads were removed and placed in Schneider's Drosophila medium (Invitrogen Life Technologies™, Carlsbad, Calif.). Using fine forceps 40 brains were individually removed and placed in a small glass vial containing 700 μl of ‘5+4’ medium (‘5+4’ medium contained 5 parts Schneider's Drosophila medium plus 4 parts roach Basal Medium Eagle, with Earle's salts (BME, Sigma™, St. Louis, Mo.). Roach BME (with Earle's salts) contained 5 parts Hepes (1 M), 1 part penicillin/streptomycin and 44 parts BME (with Earle's salts). ‘5+4’ medium was made fresh and sterile filtered (0.2 μm filter) just prior to use). The brains were dissociated by sequential trituration as follows: 1) brains were passed through a standard Pasteur pipette 10 times; 2) the resulting tissue suspension was passed an additional 5 times through a Pasteur pipet with tip flamed to about half of its original diameter; 3) a final 5 passes were performed using a Pasteur pipet with tip flamed to slightly less than half of its original diameter. A repeat pipettor was used to dispense a 5 μl volume of the resulting suspension into the center of each well of a 96-well, glass-bottom plate previously coated with poly-L-lysine (0.2 mg/ml solution). Cells attached to the bottom of the wells during a 50 min incubation at 27-29° C. 150 ul of a 1:1 mixture of Leibovitz's L-15 medium and Yunker's modified Grace's medium was added, and plates were maintained in a humid incubator at 27-29° C. until use. After cells were allowed to attach wells were filled with a 1:1 mixture of Leibovitz's L-15 medium and Yunker's modified Grace's medium (Leibovitz's L-15 and Grace's medium were obtained from Invitrogen Life Technologies™, Carlsbad, Calif. and Yunker's modified Grace's medium was made with Grace's medium modified by addition of 5 mg L-methionine, 10 mg L-alanine, 182 mg MgCl26H20, 1 g Albumin Fraction V, 7 ml Fetal bovine serum, 10 ml Chick embryo extract, 2 ml Penicillin/Streptomycin, and 2 mg 20-hydroxyecdysone (prepared in ethanol prior to addition) to a final volume of 100 ml and sterile filtered (0.2 μm filter)). Cells were maintained in a high humidity incubator at 29° C. until testing.
Cells were rinsed in standard physiological saline having the following composition (mM): NaCl 190; CaCl2 9; KCl 3.1; probenicid 1; Tris buffer 10; pH 7.2. Cells were then bathed in standard physiological saline containing the calcium sensitive fluoroprobe Fluo4 AM (2 μM) and Pluronic F127 (0.002%) for 45 min. Cells were then rinsed in standard physiological saline for at least 15 min prior to testing. Within the hour prior to testing, standard physiological saline was replaced with standard physiological saline containing the organic cation channel blocker pimozide (10 μM), to inhibit influx of external calcium through voltage-gated calcium channels. The 96-well plate was placed on a PriorTm motorized stage mounted onto a Nikon Diaphot microscope and imaged using a 20× Fluor objective (NA 0.75). Individual wells from the 96-well plate were sequentially excited with light at 495 nm, and the emitted fluorescence at 530 nm was detected using a Hamamatsu ORCA ER digital camera with 2 pixel binning (image size 672×512 pixels).
Acquisition control, image processing and image analysis were conducted using Universal Imaging Corporation's MetaMorph™ imaging software (Universal Imaging, West Chester, Pa.). A series of 3 “control” images were acquired for each well. Experimental compounds were added followed by acquisition of 4 “experimental” images for each well. […]

[3] = test system: control Sf9 cells without DNA / wild type Sf9; experiment: Calcium response in control or wild-type Sf9 cells lacking recombinant receptor; format: cell-based, Spodoptera frugiperda; conditions: caffeine 10 mM; Compound 5 3 μM
Excerpt: as §1
(§3) Imaging studies were conducted using a Nikon Diaphot microscope with a 40× oil immersion objective (NA 1.3) Image acquisition and processing was performed using the MetaFluor™ imaging system from Universal Imaging Corporation (West Chester, Pa.) Calcium calibration was carried out using the Grynkiewicz equation with a dissociation constant (Kd) of 145 nM for Fura-2 (Grynkiewicz et al., 1985). Cell-attached coverslips were placed in a sealed chamber with physiological saline continuously perfused across the cells using a peristaltic pump. Test compounds solubilized in physiological saline were applied by switching the perfusate source.
as §2

[4] = test system: recombinant Heliothis virescens ryanodine receptor (expressed in Sf9 cells); experiment: Calcium release assay in Sf9 cells expressing recombinant Heliothis virescens ryanodine receptor; format: cell-based; conditions: 72 hr post-transfection; caffeine 10 mM; Cpd 5 3 μM
Excerpt: as §1, §3, §2

[5] = biological target: cockroach ryanodine receptor (roach femoral muscle membranes) (Periplaneta americana, UniProt Z9HFG3YSF4); experiment: Radioligand displacement ([3H]-GN analog Cpd 1) from roach femoral muscle membranes; conditions: read-out: Displacement IC50 (nM) P. americana; displacement of [3H]-Cpd 1, roach muscle membranes, 60 min at 32° C.
Method: Mid and hind legs from 6-9 week old cockroaches were excised and immediately placed in liquid nitrogen. Excised legs could be stored at −80° C. for several months, if necessary, prior to further fractionation. Typically, membrane preparations started with approximately 55 g (wet weight) of excised legs. All subsequent steps were carried out at 4° C.
The legs were homogenized on ice using a Polytron (Brinkmann Instruments, Westbury, N.Y.) for 2 min at Setting #3. In order to remove all fragments of cuticle, the homogenate was first passed through two layers of cheesecloth and then through one layer of glass wool overlaid on two layers of cheesecloth. On occasion, the cheesecloth clogged with particulates prior to passing all material through. In such cases, fresh cheesecloth (and glass wool) was used for the remainder of the suspension. […] The supernatant was collected and centrifuged for 30 min at 30,000×gmax. The resulting pellet was resuspended in buffer A (1.5 M KCl, 0.3 M sucrose, 0.5 mM CaCl2, 20 mM Tris-HCl, pH 8.0). The membrane suspension was homogenized by hand (about 25 strokes) using a glass-teflon homogenizer. […] Subsequently, the membrane suspension was adjusted to 4 μg protein/μg by addition of buffer A and then stored in 1 ml aliquots at −80° C.
The assay was begun by addition of 25 μl of roach muscle membranes at 2 μg/μl (prepared by thawing and addition of an equal volume of buffer B), and incubation was carried out for 60 min at 32° C. Assays were carried out in triplicate.
The compound was allowed to pre-incubate with the membranes for 10 min at 32° C. […] Assays were carried out in triplicate.
Following incubation, assays were quenched with ice-cold buffer B and immediately filtered on pre-wefted Unifilter 96 GF/B filter microplates using a Unifilter 96 Harvester (PerkinElmer™, Boston, Mass.). Each assay well was then washed 10 times with buffer B, and collected on the same filter microplate. The filter microplates were then placed in a vacuum oven at 32° C. for 3 h, following which 50 μl of Microscint 0 (PerkinElmer™, Boston, Mass.) was added to each well. Plates were then heat sealed and counted using a Topcount microplate scintillation counter (PerkinElmer™, Boston, Mass.).

Cc1cccc(C(=O)NC(C)C)c1NC(=O)c1cc(C(F)(F)F)nn1-c1ncccc1Cl [Cpd 5, 1-(3-Chloro-2-pyridinyl)-N-[2-methyl-6-[[(1-methylethyl)amino]carbonyl]phenyl]-3-(trifluoromethyl)-1H-pyrazole-5-carboxamide]
Calcium Release Threshold (nM) D. melanogaster [1]: <300 nM
Calcium Release Threshold (nM) P. americana [2]: <300 nM
calcium responses in control cells without DNA (FIG. 4) [3]: No significant calcium responses
cytosolic [Ca2+], Sf9 transiently expressing H. virescens ryanodine receptor (FIG. 4) [4]: increase in cytosolic [Ca^2+]
IC50 [5]: < 300 nM
